IC50 data for seven molecules are collected here from patent US12227501B2, “3-amino-2-[2-(acylamino)pyridin-4-yl]-1,5,6,7-tetrahydro-4h-pyrrolo[3,2-c]pyridin-4-one as CSNK1 inhibitors” (Bayer Aktiengesellschaft, priority 2019, dated 2025).

What all share (format): biochemical
The target in one assay is human CSNK1D (Homo sapiens (Human), UniProt P48730). As to the kind of experiment: CSNK1D Assay (ADP-Glo, 1 μM ATP). As to conditions: read-out: CSNK1D IC50 [mol/l] (median). Here is the method: CSNK1 D-inhibitory activity of compounds of the present invention in presence of 1 μM adenosine-tri-phosphate (ATP) was quantified employing the CSNK1D assay as described in the following paragraphs. In essence, the enzyme activity is measured by quantification of the adenosine-di-phosphate (ADP), which is generated as a co-product of the enzyme reaction, via the “ADP-Glo™ Kinase Assay” kit from the company Promega. This detection system works as follows: In a first step the ATP not consumed in the kinase reaction is quantitatively converted to cAMP employing an adenylate cyclase (“ADP-Glo-reagent”), then the adenylate cyclase is stopped and the ADP generated in the kinase reaction converted to ATP which generates in a luciferase-based reaction a glow-luminescence signal (“Kinase Detection Reagent”). Recombinant fusion protein of N-terminal Glutathion-S-Transferase (GST) and full-length human CSNK1D, expressed by baculovirus infected insect cells and purified via Glutathion affinity chromatography, was purchased from Life Technologies (product no. PV3665) and used as enzyme. As substrate for the kinase reaction the biotinylated peptide Btn-Ahx-[…] (C-terminus in amide form) was used which can be purchased e.g. from the company Biosyntan (Berlin-Buch, Germany).
Sequence of human CSNK1D (P48730 whole entry): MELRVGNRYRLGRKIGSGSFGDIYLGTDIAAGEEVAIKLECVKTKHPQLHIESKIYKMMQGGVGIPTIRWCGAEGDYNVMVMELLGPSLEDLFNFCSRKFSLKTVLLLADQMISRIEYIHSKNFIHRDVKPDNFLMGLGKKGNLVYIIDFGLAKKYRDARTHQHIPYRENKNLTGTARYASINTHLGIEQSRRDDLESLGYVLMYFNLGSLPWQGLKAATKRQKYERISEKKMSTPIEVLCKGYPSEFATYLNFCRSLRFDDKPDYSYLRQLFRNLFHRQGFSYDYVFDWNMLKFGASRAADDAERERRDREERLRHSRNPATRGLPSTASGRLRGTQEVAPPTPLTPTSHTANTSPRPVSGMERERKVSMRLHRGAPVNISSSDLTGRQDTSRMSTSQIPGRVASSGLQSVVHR
For the assay 50 nl of a 100 fold concentrated solution of the test compound in DMSO was pipetted into a white 1536-well microtiter plate (Greiner Bio-One, Frickenhausen, Germany), 2 μL of a solution of CSNK1D in aqueous assay buffer [50 mM HEPES pH 7.5, 10% (v/v) glycerol, 10 mM MgCl2, 50 mM NaCl, 1 mM dithiothreitol, 0.01% (w/v) bovine serum albumin, 0.01% (v/v) Triton X-100] were added and the mixture was incubated for 15 min at 22° C. to allow pre-binding of the test compounds to the enzyme before the start of the kinase reaction. […] The concentration of CSNK1 D was adjusted depending of the activity of the enzyme lot and was chosen appropriate to have the assay in the linear range, a typical concentration is about 0.5 ng/μL. The reaction was stopped by the addition of 2.5 μL of “ADP-Glo-reagent” (1:1.5 fold diluted with water) and the resulting mixture was incubated at 22° C. for 1 h to convert the ATP not consumed in the kinase reaction completely […]. Subsequently 2.5 μL of the “kinase detection reagent” (1.2 fold more concentrated than recommended by the producer) were added, the resulting mixture was incubated at 22° C. for 1 h and then the luminescence measured with a suitable measurement instrument (e.g. Viewlux™ from Perkin-Elmer). The amount of emitted light was taken as a measure for the amount of ADP generated and thereby for the activity of the CSNK1D.

The target in assay [1] is T1, human CSNK1A1 (Homo sapiens (Human), UniProt P48729). Kind of assay: CSNK1A1 Assay 2 (ADP-Glo, 1 μM ATP). As to conditions: substrate biotin-Ahx-KRRRAL-pS-VASLPGL, read-out: CSNK1A1 Assay 2 IC50 [mol/l] (median). On the procedure:
CSNK1A1-inhibitory activity of compounds of the present invention in presence of 1 μM adenosine-tri-phosphate (ATP) was quantified employing the CSNK1A1 assay as described in the following paragraphs. In essence, the enzyme activity is measured by quantification of the adenosine-di-phosphate (ADP), which is generated as a co-product of the enzyme reaction, via the “ADP-Glo™ Kinase Assay” kit from the company Promega. This detection system works as follows: In a first step the ATP not consumed in the kinase reaction is quantitatively converted to cAMP employing an adenylate cyclase (“ADP-Glo-reagent”), then the adenylate cyclase is stopped and the ADP generated in the kinase reaction converted to ATP which generates in a luciferase-based reaction a glow-luminescence signal (“Kinase Detection Reagent”). Recombinant fusion protein of N-terminal Glutathion-S-Transferase (GST) and full-length human CSNK1A1, expressed by baculovirus infected insect cells and purified via Glutathion affinity chromatography, was purchased from Life Technologies (product no. PV4174) and used as enzyme. As substrate for the kinase reaction the biotinylated peptide biotin-Ahx-KRRRAL-pS-VASLPGL (C-terminus in amide form) was used which can be purchased e.g. from the company Biosyntan (Berlin-Buch, Germany).
For the assay 50 nl of a 100 fold concentrated solution of the test compound in DMSO was pipetted into a white 1536-well microtiter plate (Greiner Bio-One, Frickenhausen, Germany), 2 μL of a solution of CSNK1A1 in aqueous assay buffer [50 mM HEPES pH 7.5, 10% (v/v) glycerol, 10 mM MgCl2, 50 mM NaCl, 1 mM dithiothreitol, 0.01% (w/v) bovine serum albumin, 0.01% (v/v) Triton X-100] were added and the mixture was incubated for 15 min at 22° C. to allow pre-binding of the test compounds to the enzyme before the start of the kinase reaction. […] The concentration of CSNK1A1 was adjusted depending of the activity of the enzyme lot and was chosen appropriate to have the assay in the linear range, a typical concentrations are about 0.0375 ng/μL. The reaction was stopped by the addition of 2.5 μL of “ADP-Glo-reagent” (1:1.5 fold diluted with water) and the resulting mixture was incubated at 22° C. for 1 h to convert the ATP not consumed in the kinase reaction completely […]. Subsequently 2.5 μL of the “kinase detection reagent” (1.2 fold more concentrated than recommended by the producer) were added, the resulting mixture was incubated at 22° C. for 1 h and then the luminescence measured with a suitable measurement instrument (e.g. Viewlux™ from Perkin-Elmer). The amount of emitted light was taken as a measure for the amount of ADP generated and thereby for the activity of the CSNK1A1.

Assay [2] has as its target wild-type Epidermal Growth Factor Receptor (EGFR) (Homo sapiens (Human), UniProt P00533). Kind of assay: WT-EGFR Kinase Assay (TR-FRET, 2 mM ATP). As to conditions: EGFR Wildtyp- 2 mM ATP IC50 [mol/l] (median).
Assay [3] concerns the target T1, human CSNK1A1. Kind of assay: CSNK1A1 High ATP Assay (ADP-Glo, 1 mM ATP). As to conditions: read-out: CSNK1A1 high ATP assay IC50 [mol/l] (median). Here is the method: CSNK1A1-inhibitory activity of compounds of the present invention in presence of 1 mM adenosine-tri-phosphate (ATP) was quantified employing the CSNK1A1-high-ATP-assay as described in the following paragraphs. In essence, the enzyme activity is measured by quantification of the adenosine-di-phosphate (ADP), which is generated as a co-product of the enzyme reaction, via the “ADP-Glo™ Kinase Assay” kit from the company Promega. This detection system works as follows: In a first step the ATP not consumed in the kinase reaction is quantitatively converted to cAMP employing an adenylate cyclase (“ADP-Glo-reagent”), then the adenylate cyclase is stopped and the ADP generated in the kinase reaction converted to ATP which generates in a luciferase-based reaction a glow-luminescence signal (“Kinase Detection Reagent”).
Recombinant fusion protein of N-terminal Glutathion-S-Transferase (GST) and full-length human CSNK1A1, expressed by baculovirus infected insect cells and purified via Glutathion affinity chromatography, was purchased from Life Technologies (product no. PV4174) and used as enzyme. As substrate for the kinase reaction the biotinylated peptide biotin-Ahx-KRRRAL-pS-VASLPGL (C-terminus in amide form) was used which can be purchased e.g. from the company Biosyntan (Berlin-Buch, Germany).
For the assay 50 nl of a 100 fold concentrated solution of the test compound in DMSO was pipetted into a white low volume 384-well microtiter plate (Greiner Bio-One, Frickenhausen, Germany), 2 μL of a solution of CSNK1A1 in aqueous assay buffer [50 mM HEPES pH 7.5, 10% (v/v) glycerol, 10 mM MgCl2, 50 mM NaCl, 1 mM dithiothreitol, 0.01% (w/v) bovine serum albumin, 0.01% (v/v) Triton X-100] were added and the mixture was incubated for 15 min at 22° C. to allow pre-binding of the test compounds to the enzyme before the start of the kinase reaction. […] The concentration of CSNK1A1 was adjusted depending of the activity of the enzyme lot and was chosen appropriate to have the assay in the linear range, a typical concentration is about 0.4 ng/μL. The reaction was stopped by the addition of 2.5 μL of “ADP-Glo-reagent” (1:1.5 fold diluted with water) and the resulting mixture was incubated at 22° C. for 1 h to convert the ATP not consumed in the kinase reaction completely […]. Subsequently 2.5 μL of the “kinase detection reagent” (1.2 fold more concentrated than recommended by the producer) were added, the resulting mixture was incubated at 22° C. for 1 h and then the luminescence measured with a suitable measurement instrument (e.g. Viewlux™ from Perkin-Elmer). The amount of emitted light was taken as a measure for the amount of ADP generated and thereby for the activity of the CSNK1A1.

Sequence of wild-type Epidermal Growth Factor Receptor (EGFR) (P00533 669-1210): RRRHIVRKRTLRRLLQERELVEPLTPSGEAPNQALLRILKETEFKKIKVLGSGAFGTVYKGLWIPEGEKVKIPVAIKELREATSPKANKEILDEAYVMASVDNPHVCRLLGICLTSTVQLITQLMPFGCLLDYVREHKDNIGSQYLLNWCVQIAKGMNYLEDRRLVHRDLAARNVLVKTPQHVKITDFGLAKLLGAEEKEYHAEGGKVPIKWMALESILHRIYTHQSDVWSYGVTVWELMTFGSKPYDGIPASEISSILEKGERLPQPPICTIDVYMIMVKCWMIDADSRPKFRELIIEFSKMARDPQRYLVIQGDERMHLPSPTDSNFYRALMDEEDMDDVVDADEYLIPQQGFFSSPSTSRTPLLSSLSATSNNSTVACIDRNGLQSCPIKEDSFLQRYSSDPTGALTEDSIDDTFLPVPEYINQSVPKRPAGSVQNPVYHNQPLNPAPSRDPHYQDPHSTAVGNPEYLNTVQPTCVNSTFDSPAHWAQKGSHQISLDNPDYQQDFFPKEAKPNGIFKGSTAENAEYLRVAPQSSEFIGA
T1 sequence (P48729 whole entry): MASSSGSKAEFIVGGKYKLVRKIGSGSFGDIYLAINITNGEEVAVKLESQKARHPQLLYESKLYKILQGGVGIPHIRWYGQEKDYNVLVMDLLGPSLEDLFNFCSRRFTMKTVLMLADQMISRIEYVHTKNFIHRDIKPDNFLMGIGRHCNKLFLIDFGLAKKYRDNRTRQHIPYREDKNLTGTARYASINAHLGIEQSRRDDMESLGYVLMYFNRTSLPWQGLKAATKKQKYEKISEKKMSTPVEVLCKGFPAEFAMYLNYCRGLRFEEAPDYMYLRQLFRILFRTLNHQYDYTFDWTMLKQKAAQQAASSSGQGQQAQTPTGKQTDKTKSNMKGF

Take `CC(C(=O)Nc1cc(-c2[nH]c3c(c2Nc2ccccc2)C(=O)N(C)CC3)ccn1)c1ccc(Cl)cc1` (racemic) [Example 79, N-[4-(3-anilino-5-methyl-4-oxo-4,5,6,7-tetrahydro-1H-pyrrolo[3,2-c]pyridin-2-yl)pyridin-2-yl]-2-(4-chlorophenyl)propanamide]: the IC50 on human CSNK1D is 19.5 nM; on human CSNK1A1 [1] it was 8.93 nM; in assay [2], over 20000 nM; at human CSNK1A1 [3], 337 nM.
The matching figures for `CC1Cc2[nH]c(-c3ccnc(NC(=O)Cc4ccc(F)cc4)c3)c(Nc3ccccc3)c2C(=O)N1C` (racemic) [Example 88, N-{4-[3-anilino-5,6-dimethyl-4-oxo-4,5,6,7-tetrahydro-1H-pyrrolo[3,2-c]pyridin-2-yl]pyridin-2-yl}-2-(4-fluorophenyl)acetamide]: 5.18 nM, 2.33 nM, 727 nM and 65.1 nM.
For the molecule `CC1Cc2[nH]c(-c3ccnc(NC(=O)Cc4ccncc4)c3)c(Nc3ccccc3)c2C(=O)N1C` (racemic) [Example 97, N-{4-[3-anilino-5,6-dimethyl-4-oxo-4,5,6,7-tetrahydro-1H-pyrrolo[3,2-c]pyridin-2-yl]pyridin-2-yl}-2-(pyridin-4-yl)acetamide], the IC50 came out at 5.73 nM on human CSNK1D, 4.4 nM at human CSNK1A1 [1], 529 nM in assay [2] and 47 nM on human CSNK1A1 [3].
For the molecule `CC1Cc2[nH]c(-c3ccnc(NC(=O)Cc4ccc(F)cc4)c3)c(Nc3ccccc3F)c2C(=O)N1C` (racemic) [Example 100, N-{4-[3-(2-fluoroanilino)-5,6-dimethyl-4-oxo-4,5,6,7-tetrahydro-1H-pyrrolo[3,2-c]pyridin-2-yl]pyridin-2-yl}-2-(4-fluorophenyl)acetamide], the IC50 on human CSNK1D stood at 15.6 nM; at human CSNK1A1 [1], 3.97 nM; in assay [2], 3830 nM; at human CSNK1A1 [3], 254 nM.
With `CC1(C)Cc2[nH]c(-c3ccnc(NC(=O)C(CC(F)F)c4ccc(F)cc4)c3)c(Nc3cccc(F)c3Cl)c2C(=O)N1` (racemic) [Example 109, N-{4-[3-(2-chloro-3-fluoroanilino)-6,6-dimethyl-4-oxo-4,5,6,7-tetrahydro-1H-pyrrolo[3,2-c]pyridin-2-yl]pyridin-2-yl}-4,4-difluoro-2-(4-fluorophenyl)butanamide], the IC50 at human CSNK1D is 14.1 nM; at human CSNK1A1 [1], 16.4 nM; in assay [2], over 20000 nM; on human CSNK1A1 [3] it was 136 nM.
For `CC1(C)Cc2[nH]c(-c3ccnc(NC(=O)C(CC(F)F)c4ccc(S(C)(=O)=O)cc4)c3)c(Nc3ccccc3)c2C(=O)N1` (racemic) [Example 118, N-[4-(3-anilino-6,6-dimethyl-4-oxo-4,5,6,7-tetrahydro-1H-pyrrolo[3,2-c]pyridin-2-yl)pyridin-2-yl]-4,4-difluoro-2-[4-(methanesulfonyl)phenyl]butanamide (Racemate)], in that order: 12.9 nM, 5.16 nM, 7260 nM and 107 nM.
The matching figures for `O=C1NC2(CCC2)Cc2[nH]c(-c3ccnc(NC(=O)C(CC(F)F)c4ccc(F)cc4)c3)c(Nc3cccc(F)c3Cl)c21` (racemic) [Example 123, N-{4-[3′-(2-chloro-3-fluoroanilino)-4′-oxo-1′,4′,5′,7′-tetrahydrospiro[cyclobutane-1,6′-pyrrolo[3,2-c]pyridin]-2′-yl]pyridin-2-yl}-4,4-difluoro-2-(4-fluorophenyl)butanamide (Racemate)]: 9.91 nM, 13.5 nM, 56.4 nM and 29.1 nM.
